Assay results: patent US20230248726A1, “PHARMACEUTICAL COMPOSITION AND APPLICATION THEREOF” (SHANGHAI RAISING PHARMACEUTICAL CO., LTD., priority 2020, published 2023)
Counter-ions that a name gives are not always drawn.

Tested on: APP/PS1/Tau mice
Assay: Morris water maze test
Format: in vivo
Conditions: for Time in the target quadrant / Times of crossing over the platform / latent period: APP/PS1/Tau mice, intragastric daily for 8 weeks, testing Day 6, n = 10, BTMP 200 mg/kg, VB1 200 mg/kg, donepezil hydrochloride 1.5 mg/kg, ½BTMP 100 mg/kg; for spatial memory and learning ability of the AD mice (result in words): Morris water maze, compared with the model group
From the text: In water, rodents have a strong motivation to escape from the water environment, and can escape from the water environment in the fastest and most direct way. The process of learning to escape from the water environment reflects the learning ability of animals. Spatial positioning according to the surrounding environment and swimming to a safe place in the water (such as a platform) on purpose can reflect the spatial learning and memory ability of animals.
The test animals were male APP/PS1/Tau mice and C57BL/6 wild type mice. The mice were 8 months old, weighing […], and purchased from The Jackson laboratory.
App/PS1/Tau mice are APP/PS1/tau triple transgenic Alzheimer's disease (3×Tg-AD) model mice, whose AO deposition occurs several months earlier than the pathological change of the tau protein, and can more realistically simulate the clinical process and pathological changes of Alzheimer's disease.
Preparation of a 10 mg/ml vitamin B1 solution (dosage: 200 mg/kg): 500 mg of vitamin B1 was weighed, and 0.7% m/v CMC-Na was added to reach 50 ml, to obtain a 10 mg/ml solution.
Preparation of a 10 mg/ml BTMP suspension (dosage: 200 mg/kg): 500 mg of BTMP was weighed, and 0.7% m/v CMC-Na was added to reach 50 ml, to obtain a 10 mg/ml BTMP suspension.
Preparation of a 0.075 mg/ml donepezil hydrochloride suspension (dosage: 1.5 mg/kg): one donepezil hydrochloride tablet (containing 5 mg donepezil hydrochloride) was ground, and 0.7% m/v CMC-Na was added to reach 66.67 ml, to obtain a 0.075 mg/ml donepezil hydrochloride suspension.
Preparation of a 10 mg/ml BTMP suspension+0.075 mg/ml donepezil hydrochloride suspension (dosage: 200 mg/kg BTMP suspension+1.5 mg/kg donepezil hydrochloride suspension): a 20 mg/ml BTMP suspension and a 0.15 mg/ml donepezil hydrochloride suspension were respectively prepared, and equal volumes were evenly mixed before administration, to obtain a 10 mg/ml BTMP suspension+0.075 mg/ml donepezil hydrochloride suspension.
Preparation of a 5 mg/ml BTMP suspension+0.075 mg/ml donepezil hydrochloride suspension (dosage: 100 mg/kg BTMP suspension+1.5 mg/kg donepezil hydrochloride suspension): a 10 mg/ml BTMP suspension and a 0.15 mg/ml donepezil hydrochloride suspension were respectively prepared, and equal volumes were evenly mixed before administration, to obtain a 5 mg/ml BTMP suspension+0.075 mg/ml donepezil hydrochloride suspension.
The mice in the blank control group, the model group and the test groups were intragastrically administered according to the dosage/specification in 2.2. for 8 weeks, and the water maze training and testing were started in the last week of the administration. The water maze training and testing lasted for 6 days, with 5 days of training and 1 day of testing. In addition, during the water maze training and testing period (6 days in total), conditions such as the indoor lighting etc. were kept constant, and the room was kept quiet, so as to eliminate the interference of the environment and personnel.
(1) Pre-test preparation: an appropriate amount of water was placed in a water maze pool with water temperature being kept at 22±3° C., a platform was placed at a fixed position (the target quadrant) and 1 cm below the water surface, and titanium dioxide was added until water color was white, and the platform could not be seen clearly.
(2) Training period (Day 1 to Day 5): each mouse was placed on the platform for 15 s (to increase the mouse's sense of security on the platform) prior to the first quadrant training on each day, and then the mouse was placed in the quadrant where the platform located in the pool (head towards the wall), and a swimming time of 60 s was set. If it found the platform within 60 s and stayed for 5 s, it was considered as a success in finding the platform.
After the first quadrant training, the training in the remaining three quadrants was performed in turn, wherein it is not necessary to place the mice on the platform and hold for 15 s before training.

COc1cc2c(cc1OC)C(=O)C(CC1CCN(Cc3ccccc3)CC1)C2 (stereo not drawn) [Donepezil hydrochloride, donepezil hydrochloride]
Time in the target quadrant: 14.44 ± 1.11 s
Times of crossing over the platform: 1.80 ± 0.79
latent period: 27.80 ± 2.04 s
spatial memory and learning ability of the AD mice (result in words): significantly improved

C/C(=C(\CCOP(=O)(O)O)SC(=O)c1ccccc1)N(C=O)Cc1cnc(C)nc1N [BTMP, S-2-[[(2-methyl-4-amino-5-pyrimidinyl)methyl]formylamino]-5-phosphonooxy-2,3-pentenyl-3-mercaptobenzoate]
Time in the target quadrant: 14.96 ± 1.50 s
Times of crossing over the platform: 2.10 ± 0.74
latent period: 26.10 ± 1.85 s
spatial memory and learning ability of the AD mice (result in words): significantly improved

Cc1ncc(C[n+]2csc(CCO)c2C)c(N)n1 [VB1, vitamin B1]
Time in the target quadrant: 11.87 ± 1.17^*#& s
Times of crossing over the platform: 1.00 ± 0.67^*&
latent period: 35.10 ± 4.09^*#& s
spatial memory and learning ability of the AD mice (result in words): did not significantly improve
